Biological target: Aβ42 (Homo sapiens, UniProt P05067)
Assay: Th-T (thioflavin-T) assay of Aβ42 aggregation
Assay type: biochemical
Details: for Th-T fluorescence of Aβ42 with compound, mean of three wells (Fig. 7a source data): concentration 50, unit not given

Aβ42, sequence (P05067 672-713): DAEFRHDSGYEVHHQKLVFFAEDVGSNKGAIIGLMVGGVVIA

## C=C1CCC2C(C)(CCC=C(C)C)C(O)CCC2(C)C1Cc1c(OC)oc(CO)c(C)c1=O (stereo not drawn) [Compound 12]
time-course reading M143
  Th-T fluorescence of Aβ42 with compound, mean of three wells (Fig. 7a source data): 1.6964
time-course reading M144
  Th-T fluorescence of Aβ42 with compound, mean of three wells (Fig. 7a source data): 1.681
time-course reading M145
  Th-T fluorescence of Aβ42 with compound, mean of three wells (Fig. 7a source data): 1.696
Head suffix _10 (concentration 10), reading M63
  Th-T fluorescence of Aβ42 (sheet Fig. 7a), mean of three wells: 3.408
Head suffix _10 (concentration 10), reading M64
  Th-T fluorescence of Aβ42 (sheet Fig. 7a), mean of three wells: 3.415
Head suffix _10 (concentration 10), reading M65
  Th-T fluorescence of Aβ42 (sheet Fig. 7a), mean of three wells: 3.397
Head suffix _10 (concentration 10), reading M66
  Th-T fluorescence of Aβ42 (sheet Fig. 7a), mean of three wells: 3.3918
Head suffix _10 (concentration 10), reading M67
  Th-T fluorescence of Aβ42 (sheet Fig. 7a), mean of three wells: 3.364
Head suffix _10 (concentration 10), reading M68
  Th-T fluorescence of Aβ42 (sheet Fig. 7a), mean of three wells: 3.364
Head suffix _10 (concentration 10), reading M69
  Th-T fluorescence of Aβ42 (sheet Fig. 7a), mean of three wells: 3.344
Head suffix _10 (concentration 10), reading M70
  Th-T fluorescence of Aβ42 (sheet Fig. 7a), mean of three wells: 3.357
Head suffix _10 (concentration 10), reading M71
  Th-T fluorescence of Aβ42 (sheet Fig. 7a), mean of three wells: 3.333
Head suffix _10 (concentration 10), reading M72
  Th-T fluorescence of Aβ42 (sheet Fig. 7a), mean of three wells: 3.332
Head suffix _10 (concentration 10), reading M73
  Th-T fluorescence of Aβ42 (sheet Fig. 7a), mean of three wells: 3.302
Head suffix _10 (concentration 10), reading M74
  Th-T fluorescence of Aβ42 (sheet Fig. 7a), mean of three wells: 3.307
Head suffix _10 (concentration 10), reading M75
  Th-T fluorescence of Aβ42 (sheet Fig. 7a), mean of three wells: 3.295
Head suffix _10 (concentration 10), reading M76
  Th-T fluorescence of Aβ42 (sheet Fig. 7a), mean of three wells: 3.265
Head suffix _10 (concentration 10), reading M77
  Th-T fluorescence of Aβ42 (sheet Fig. 7a), mean of three wells: 3.239
Head suffix _10 (concentration 10), reading M78
  Th-T fluorescence of Aβ42 (sheet Fig. 7a), mean of three wells: 3.245
Head suffix _10 (concentration 10), reading M79
  Th-T fluorescence of Aβ42 (sheet Fig. 7a), mean of three wells: 3.216
Head suffix _10 (concentration 10), reading M80
  Th-T fluorescence of Aβ42 (sheet Fig. 7a), mean of three wells: 3.214
Head suffix _10 (concentration 10), reading M81
  Th-T fluorescence of Aβ42 (sheet Fig. 7a), mean of three wells: 3.199
Head suffix _10 (concentration 10), reading M82
  Th-T fluorescence of Aβ42 (sheet Fig. 7a), mean of three wells: 3.17
Head suffix _10 (concentration 10), reading M83
  Th-T fluorescence of Aβ42 (sheet Fig. 7a), mean of three wells: 3.151
Head suffix _10 (concentration 10), reading M84
  Th-T fluorescence of Aβ42 (sheet Fig. 7a), mean of three wells: 3.157
Head suffix _20 (concentration 20), reading M63
  Th-T fluorescence of Aβ42 (sheet Fig. 7a), mean of three wells: 2.111
Head suffix _20 (concentration 20), reading M64
  Th-T fluorescence of Aβ42 (sheet Fig. 7a), mean of three wells: 2.103
Head suffix _20 (concentration 20), reading M65
  Th-T fluorescence of Aβ42 (sheet Fig. 7a), mean of three wells: 2.121
Head suffix _20 (concentration 20), reading M66
  Th-T fluorescence of Aβ42 (sheet Fig. 7a), mean of three wells: 2.113
Head suffix _20 (concentration 20), reading M67
  Th-T fluorescence of Aβ42 (sheet Fig. 7a), mean of three wells: 2.119
Head suffix _20 (concentration 20), reading M68
  Th-T fluorescence of Aβ42 (sheet Fig. 7a), mean of three wells: 2.108
Head suffix _20 (concentration 20), reading M69
  Th-T fluorescence of Aβ42 (sheet Fig. 7a), mean of three wells: 2.09
Head suffix _20 (concentration 20), reading M70
  Th-T fluorescence of Aβ42 (sheet Fig. 7a), mean of three wells: 2.126
Head suffix _20 (concentration 20), reading M71
  Th-T fluorescence of Aβ42 (sheet Fig. 7a), mean of three wells: 2.116
Head suffix _20 (concentration 20), reading M72
  Th-T fluorescence of Aβ42 (sheet Fig. 7a), mean of three wells: 2.113
Head suffix _20 (concentration 20), reading M73
  Th-T fluorescence of Aβ42 (sheet Fig. 7a), mean of three wells: 2.112
Head suffix _20 (concentration 20), reading M74
  Th-T fluorescence of Aβ42 (sheet Fig. 7a), mean of three wells: 2.11
Head suffix _20 (concentration 20), reading M75
  Th-T fluorescence of Aβ42 (sheet Fig. 7a), mean of three wells: 2.104
Head suffix _20 (concentration 20), reading M76
  Th-T fluorescence of Aβ42 (sheet Fig. 7a), mean of three wells: 2.0857
Head suffix _20 (concentration 20), reading M77
  Th-T fluorescence of Aβ42 (sheet Fig. 7a), mean of three wells: 2.081
Head suffix _20 (concentration 20), reading M78
  Th-T fluorescence of Aβ42 (sheet Fig. 7a), mean of three wells: 2.114
Head suffix _20 (concentration 20), reading M79
  Th-T fluorescence of Aβ42 (sheet Fig. 7a), mean of three wells: 2.113
Head suffix _20 (concentration 20), reading M80
  Th-T fluorescence of Aβ42 (sheet Fig. 7a), mean of three wells: 2.11
Head suffix _20 (concentration 20), reading M81
  Th-T fluorescence of Aβ42 (sheet Fig. 7a), mean of three wells: 2.089
Head suffix _20 (concentration 20), reading M82
  Th-T fluorescence of Aβ42 (sheet Fig. 7a), mean of three wells: 2.121
Head suffix _20 (concentration 20), reading M83
  Th-T fluorescence of Aβ42 (sheet Fig. 7a), mean of three wells: 2.116
Head suffix _20 (concentration 20), reading M84
  Th-T fluorescence of Aβ42 (sheet Fig. 7a), mean of three wells: 2.082
Head suffix _50 (concentration 50), reading M63
  Th-T fluorescence of Aβ42 (sheet Fig. 7a), mean of three wells: 1.459
Head suffix _50 (concentration 50), reading M64
  Th-T fluorescence of Aβ42 (sheet Fig. 7a), mean of three wells: 1.462
Head suffix _50 (concentration 50), reading M65
  Th-T fluorescence of Aβ42 (sheet Fig. 7a), mean of three wells: 1.426
Head suffix _50 (concentration 50), reading M66
  Th-T fluorescence of Aβ42 (sheet Fig. 7a), mean of three wells: 1.435
Head suffix _50 (concentration 50), reading M67
  Th-T fluorescence of Aβ42 (sheet Fig. 7a), mean of three wells: 1.458
Head suffix _50 (concentration 50), reading M68
  Th-T fluorescence of Aβ42 (sheet Fig. 7a), mean of three wells: 1.453
Head suffix _50 (concentration 50), reading M69
  Th-T fluorescence of Aβ42 (sheet Fig. 7a), mean of three wells: 1.447
Head suffix _50 (concentration 50), reading M70
  Th-T fluorescence of Aβ42 (sheet Fig. 7a), mean of three wells: 1.435
Head suffix _50 (concentration 50), reading M71
  Th-T fluorescence of Aβ42 (sheet Fig. 7a), mean of three wells: 1.445
Head suffix _50 (concentration 50), reading M72
  Th-T fluorescence of Aβ42 (sheet Fig. 7a), mean of three wells: 1.442
